Source: patent EP0298064A2, “Birth control and diagnostic methods” (BIOCARB AB, priority 1987, dated 1989)

Key:
667/9E9 = test: Inhibition by oligosaccharide of 667/9E9 staining of endometrial sections; format: binding, mice; conditions: day 4 and 5 sections; addition of 1 mM
Description: Fixed or unfixed sections were hydrated in Dulbecco's phosphate buffer pH 7.2, containing 0.1% Bovine serum albumin and 0.05% Tween 20. All antibodies and sera were diluted in the same buffer. The sections were incubated for 30 minutes in a 1/20 dilution of normal non immune goat serum […] to prevent nonspecific binding. Monoclonal antibody supernatants were diluted to either 1/10 or 1/20. The sections were overlayered with 50 µl of the primary antibody and incubated overnight in a humidified atmosphere at 4°C. Following this the sections were rinsed 4 times in the buffer and again incubated for 30 minutes in 1/20 normal goat serum. They were then stained with the second antibody, a fluorescein isothiocyanate (FITC) conjugated goat anti-mouse IgM at a final dilution of 1/80. The sections were finally rinsed in the buffer and mounted in 2.5% DABCO (Boehringer Mannheim, Germany) in 80% glycerol.

[1] = tested on: blastocyst implantation in murine endometrial epithelium monolayers; test: In vitro implantation - mouse model (blastocysts co-cultured with endometrial monolayer); format: cell-based; conditions: for Test impl/total (no. of blastocysts implanting/total no. of blastocysts added to the culture): test medium supplemented with 0.1 mM test oligosaccharide, control medium values stand in the neighbouring column
Description: In the mouse in vitro implantation system blastocyst implantation in murine endometrial epithelium monolayers was compared in 2 different media: the control medium (i.e. a medium which had supported more than 80% murine blastocyst formation from 2-cell embryos within 72 hours) and test medium (i.e. identical with the control medium except supplemented with 0.1 mM test oligosaccharide).
As control medium we used Earle's minimum essential medium (MEM) (Flow Lab), supplemented with penicillin-G 0.0075 g/l, streptomycin 0.075 g/l, glutamine 1 mM, fetal calf serum 5% and a vegetable protein source 2% (Ultrose-G, LKB, 2216-100). The final osmolality was adjusted to 285 mOsmol/kg and a pH of 7.4.
The mice were F1 hybrid B6D2F1/Bom (from the Laboratory of Animal Breeding and Research Center, Gl.Bomholdt Gȧrd, LTv., 8680 Ry, Denmark). Females aged 26 days and weighing 13-18 g and mature 6 months old males of previously proven fertility were used. They were housed in air-conditioned quarters with pelleted food and water available ad libitum and light between 7.30 a.m. and 7.30 p.m.
The female mice were superovulated with 5 I.U. FSH/LH (Antex, Leo Pharmaceuticals, Denmark) injected intraperitoneally at 9 a.m. day 1. 48 hours later (on day 3), ovulation was induced with 2.5 I.U. HCG. They were caged with males at 1 p.m. and left overnight. Mating was confirmed on the morning of day 4 by the presence of a vaginal plug.
Females were sacrificed at 9 a.m. on day 5. The oviducts were isolated and the 2-cell embryos flushed from the tubes using hand drawn glass pipettes.
Handling the 2-cells embryos outside the CO₂ incubator was carried out in the control medium supplemented with a HEPES buffer 20 mM (Flow Lab. 16-884-49).
After the oviducts were collected, the uterus of each mouse was isolated. The uterus was opened longitudinally and scraped with a rubber policeman on the uterine epithelial surface to col lect endometrial cells. These cells were handled in the HEPES buffered control medium as well. […]

implantation = test: In vivo inhibition of implantation in the mouse (intrauterine injection); parameters: species or system NMRI mice
Description: In this study the effect of structure A, injected into the uteri of naturally mated and unstimulated mice, was investigated.
10 weeks old NMRI mice were caged with NMRI males of previously proven fertility.
At plug day 4 (at 1 p.m.) the mice were anaestezed using mebumal. The abdomen was opened through a midline incision and the genital tract was identified. A 6-0 selk sutur was placed around the vaginal top intraperitoneally. 5µl of Earle's balanced salt solution (EBS) supplemented with 5 mmol/l of structure A or unsupplemented were injected into the uterine horns. The test group contained 20 mice who were injected with supplemented media containing structure A, where as the controls (15 mice) were injected with EBS unsupplemented medium.

CC(=O)N[C@H]1[C@H](O[C@H]2[C@@H](O)[C@@H](CO)O[C@@H](O[C@H]3[C@H](O)[C@@H](O)C(O)O[C@@H]3CO)[C@@H]2O)O[C@H](CO)[C@@H](O)[C@@H]1O[C@@H]1O[C@H](CO)[C@H](O)[C@H](O)[C@H]1O[C@@H]1O[C@@H](C)[C@@H](O)[C@@H](O)[C@@H]1O (stereo partly drawn) [structure A]
inhibition of the staining of the endometrial sections by 667/9E9 (667/9E9): could be inhibited
inhibition of implantation of mouse embryos (in words) ([1]; oligosaccharide concentration of 0.1 mM): inhibits the implantation of mouse embryos
Test impl/total (no. of blastocysts implanting/total no. of blastocysts added to the culture) [1]: 134/228
inhibition of implantation in vivo (in words) (implantation; 5 mmol/l, 5µl into the uterine horns): inhibits implantation in vivo in the mouse
Impl/horn (implantation; 5µl EBS with 5 mmol/l injected into the uterine horns at plug day 4, 20 mice, controls 4.2): 1.15

CC(=O)N[C@H]1[C@H](O[C@H]2[C@@H](O)[C@@H](CO)O[C@@H](O[C@H]3[C@H](O)[C@@H](O)C(O)O[C@@H]3CO)[C@@H]2O)O[C@H](CO)[C@@H](O)[C@@H]1O[C@@H]1O[C@H](CO)[C@H](O)[C@H](O)[C@H]1O (stereo partly drawn) [structure B, reference compound]
Test impl/total (no. of blastocysts implanting/total no. of blastocysts added to the culture) [1]: 92/129
